# Key:
# [1] = molecular target: Tyrosine-protein kinase BTK (Homo sapiens, UniProt Q06187); assay: Inhibition of BTK (unknown origin) measured by ADP-Glo assay
# TMD8 [2] = assay: Antiproliferative activity against human TMD8 cells incubated for 72 hrs by CellTiter-Glo assay; conditions: TMD8, 72 h
# DOHH-2 = assay: Antiproliferative activity against human DOHH-2 cells incubated for 72 hrs by CellTiter-Glo assay; type: functional, cell-based; conditions: DOHH-2, 72 h
# TMD8 [3] = assay: Antitumor activity against human TMD8 cells xenografted in female CB-17 SCID nude mouse assessed as tumor growth inhibition at 25 mg/kg, po administered twice daily for 21 days; type: functional; conditions: TMD8, 504 h, time 21 day, read-out: TGI
# [4] = Toxicity in female CB-17 SCID nude mouse xenografted with human TMD8 cells assessed as effect on body weight at 25 mg/kg, po administered twice daily for 21 days; type: organism-based; conditions: in vivo, 504 h, time 21 day
# [5] = Antiproliferative activity against human MINO cells incubated for 72 hrs by CellTiter-Glo assay; type: functional, cell-based
# Rec1 = assay: Antiproliferative activity against human REC1 cells incubated for 72 hrs by CellTiter-Glo assay; type: functional, cell-based; conditions: Rec1, 72 h
# Raji = assay: Antiproliferative activity against human Raji cells incubated for 72 hrs by CellTiter-Glo assay; type: functional, cell-based
# Ramos = assay: Antiproliferative activity against human Ramos cells incubated for 72 hrs by CellTiter-Glo assay; type: functional, cell-based
# SUD4 = assay: Antiproliferative activity against human SU-DHL-4 cells incubated for 72 hrs by CellTiter-Glo assay; type: functional, cell-based; conditions: SU-DHL-4, 72 h
# Pfeiffer = assay: Antiproliferative activity against human Pfeiffer cells incubated for 72 hrs by CellTiter-Glo assay; type: functional, cell-based
# SU-DHL-6 = assay: Antiproliferative activity against human SU-DHL-6 cells incubated for 72 hrs by CellTiter-Glo assay; type: functional, cell-based; conditions: SU-DHL-6, 72 h
# OCI-Ly3 = assay: Antiproliferative activity against human OCILY3 cells incubated for 72 hrs by CellTiter-Glo assay; type: functional, cell-based; conditions: OCI-Ly3, 72 h
# [6] = AUC (0 to t) in male BALB/c mouse at 10 mg/kg, po; type: ADME, organism-based; parameters: dose 10 mg/kg, route po; conditions: in vivo
# [7] = Half-life in male BALB/c mouse at 2 mg/kg, iv; type: ADME, organism-based; conditions: in vivo
# [8] = AUC (0 to infinity) in male BALB/c mouse at 2 mg/kg, iv; type: ADME, organism-based; parameters: time infinity, dose 2 mg/kg, route iv; conditions: in vivo
# [9] = Cmax in male BALB/c mouse at 2 mg/kg, iv; type: ADME, organism-based; parameters: dose 2 mg/kg, route iv; conditions: in vivo
# [10] = AUC (0 to infinity) in male BALB/c mouse at 10 mg/kg, po; type: ADME, organism-based; parameters: time infinity, dose 10 mg/kg, route po; conditions: in vivo
# [11] = Clearance in male BALB/c mouse at 2 mg/kg, iv; type: ADME, organism-based; conditions: in vivo
# [12] = Tmax in male BALB/c mouse at 10 mg/kg, po; type: ADME, organism-based; conditions: in vivo
# [13] = AUC (0 to t) in male BALB/c mouse at 2 mg/kg, iv; type: ADME, organism-based; parameters: dose 2 mg/kg, route iv; conditions: in vivo
# [14] = Oral bioavailability in male BALB/c mouse; type: ADME, organism-based; conditions: in vivo
# [15] = Cmax in male BALB/c mouse at 10 mg/kg, po; type: ADME, organism-based; parameters: dose 10 mg/kg, route po; conditions: in vivo
# [16] = Tmax in male BALB/c mouse at 2 mg/kg, iv; type: ADME, organism-based; conditions: in vivo
# [17] = Half-life in male BALB/c mouse at 10 mg/kg, po; type: ADME, organism-based; conditions: in vivo
# [18] = Apparent volume of distribution in male BALB/c mouse at 2 mg/kg, iv; type: ADME, organism-based; conditions: in vivo, read-out: Vz
# Homo sapiens = species on record: Homo sapiens; assay: Selectivity ratio for inhibition of BTK (unknown origin) over EGFR (unknown origin)
# Tyrosine-protein kinase BTK, sequence (Q06187 whole entry): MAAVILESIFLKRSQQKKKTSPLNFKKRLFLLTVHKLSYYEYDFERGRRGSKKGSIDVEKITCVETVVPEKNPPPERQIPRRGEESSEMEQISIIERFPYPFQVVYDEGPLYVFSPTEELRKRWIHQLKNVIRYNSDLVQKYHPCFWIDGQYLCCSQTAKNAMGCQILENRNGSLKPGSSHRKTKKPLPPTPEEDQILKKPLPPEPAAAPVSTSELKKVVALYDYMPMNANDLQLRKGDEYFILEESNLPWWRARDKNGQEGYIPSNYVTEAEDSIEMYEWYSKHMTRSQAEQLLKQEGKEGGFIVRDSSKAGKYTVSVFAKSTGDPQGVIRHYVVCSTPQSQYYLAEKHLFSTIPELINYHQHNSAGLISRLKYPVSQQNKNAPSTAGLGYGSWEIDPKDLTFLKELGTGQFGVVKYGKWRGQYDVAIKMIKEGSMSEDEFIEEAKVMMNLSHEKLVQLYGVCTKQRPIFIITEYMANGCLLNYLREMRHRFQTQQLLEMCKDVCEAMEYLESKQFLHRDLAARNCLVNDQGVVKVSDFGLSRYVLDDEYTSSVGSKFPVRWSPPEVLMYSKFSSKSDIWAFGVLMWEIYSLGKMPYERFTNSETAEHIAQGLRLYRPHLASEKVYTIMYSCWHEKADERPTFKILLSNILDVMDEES
IC50 [1],SMILES,IC50 (TMD8 [2]),other results
68.5 nM,CC#CC(=O)N1CCC(Nc2ncnc3[nH]cc(C(=O)N4CC(Oc5ccccc5)C4)c23)C1 (configuration not stated),–,–
5410 nM,C=CC(=O)NC1CCCN(c2ncnc3[nH]cc(C(=O)N4CC(Oc5ccccc5)C4)c23)C1 (configuration not stated),–,–
2 nM,C=CC(=O)N1CCC(CNc2ncnc3[nH]cc(C(=O)N4CC(OCc5ccccc5)C4)c23)CC1,30.7 nM,–
1.2 nM,C=CC(=O)N1CC=C(c2c[nH]c3ncnc(-c4ccc(CNC(=O)c5ccc(C6CC6)cc5)c(F)c4)c23)CC1,0.8 nM,–
0.8 nM,C=CC(=O)N1CCC(c2c[nH]c3ncnc(-c4ccc(CNC(=O)c5ccc(C(C)(C)C)cc5)c(C)c4)c23)CC1,1.5 nM,–
31.7 nM,CCOc1cc2ncc(C#N)c(Nc3ccc(OCc4ccccn4)c(Cl)c3)c2cc1NC(=O)/C=C/[C@H]1CCCN1C [PYROTINIB],–,–
0.7 nM,C=CC(=O)N1CCC(CNc2ncnc3[nH]cc(C(=O)N4CC(Oc5ccc(F)cc5)C4)c23)CC1,84.1 nM,–
–,C=CC(=O)N1CCC[C@@H](n2nc(-c3ccc(Oc4ccccc4)cc3)c3c(N)ncnc32)C1 [IBRUTINIB],2.7 nM,IC50 (DOHH-2): 506 nM; inhibition in vivo at 25 mg/kg (TMD8 [3]): 103%; Activity [4]: Non-Toxic; IC50 [5]: > 10000 nM; IC50 (Rec1): 0.8 nM; IC50 (Raji): > 10000 nM; IC50 (Ramos): 2090 nM; IC50 (SUD4): 804 nM; IC50 (Pfeiffer): 1650 nM; IC50 (SU-DHL-6): 1500 nM; IC50 (OCI-Ly3): > 10000 nM
> 10000 nM,CC#CC(=O)NC1CCCN(c2ncnc3[nH]cc(C(=O)N4CC(Oc5ccccc5)C4)c23)C1 (configuration not stated),–,–
1.4 nM,CC#CC(=O)N1CCC(c2c[nH]c3ncnc(-c4ccc(CNC(=O)c5ccc(C(C)(C)C)cc5)c(C)c4)c23)CC1,–,–
23.2 nM,C=CC(=O)N1CCC(CNc2ncnc3[nH]cc(C(=O)N4CC(OC(C)C)C4)c23)CC1,–,–
593 nM,C=CC(=O)N1CCC(Nc2ncnc3[nH]cc(C(=O)N4CC(Oc5ccccc5)C4)c23)CC1,–,–
16.4 nM,CC#CC(=O)N1CCC(CNc2ncnc3[nH]cc(C(=O)N4CC(Oc5ccccc5)C4)c23)CC1,–,–
1.4 nM,CC#CC(=O)N1CC=C(c2c[nH]c3ncnc(-c4ccc(CNC(=O)Nc5ccccc5)c(F)c4)c23)CC1,7.2 nM,–
1.6 nM,C=CC(=O)N1CCC(CNc2ncnc3[nH]cc(C(=O)N4CC(Oc5cccc(C(F)(F)F)c5)C4)c23)CC1,22.4 nM,–
153 nM,CC#CC(=O)N1CCCC(Nc2ncnc3[nH]cc(C(=O)N4CC(Oc5ccccc5)C4)c23)C1 (configuration not stated),–,–
98.7 nM,C=CC(=O)N1CCC(CNc2ncnc3[nH]cc(C(=O)Nc4ccccc4)c23)CC1,–,–
1 nM,CC#CC(=O)N1CC=C(c2c[nH]c3ncnc(-c4ccc(CNC(=O)c5ccccc5)c(F)c4)c23)CC1,5.4 nM,–
4.5 nM,C=CC(=O)N1CCC(Nc2ncnc3[nH]cc(C(=O)N4CC(Oc5ccccc5)C4)c23)C1 (configuration not stated),2530 nM,–
17.3 nM,C=CC(=O)N1CCC(CNc2ncnc3[nH]cc(C(=O)NCCc4ccccc4)c23)CC1,–,–
2.1 nM,C=CC(=O)N1CCC(c2c[nH]c3ncnc(-c4ccc(CNC(=O)c5ccc(C(C)(C)C)cc5)cc4)c23)CC1,–,–
0.8 nM,C=CC(=O)N1CC=C(c2c[nH]c3ncnc(-c4ccc(CNC(=O)Nc5ccccc5)c(F)c4)c23)CC1,12.1 nM,–
1.9 nM,CC#CC(=O)N1CC=C(c2c[nH]c3ncnc(-c4ccc(CNC(=O)c5ccc(C6CC6)cc5)c(F)c4)c23)CC1,1.2 nM,–
52.3 nM,C=CC(=O)N1CCC(CNc2ncnc3[nH]cc(C(=O)NCc4ccccc4)c23)CC1,–,–
0.4 nM,C=CC(=O)N1CCC(CNc2ncnc3[nH]cc(C(=O)N4CC(Oc5cccc(F)c5)C4)c23)CC1,9.2 nM,AUC(0-t) [6]: 69.5 ng·h/mL; half-life [7]: 15.6 min; AUC(0-inf) [8]: 541 ng·h/mL; Cmax [9]: 2230 ng/mL; AUC(0-inf) [10]: 75.3 ng·h/mL; clearance [11]: 61.8 mL/min/kg; Tmax [12]: 15 min; AUC(0-t) [13]: 539 ng·h/mL; bioavailability [14]: 2.58%; Cmax [15]: 148 ng/mL; Tmax [16]: 1.8 min; half-life [17]: 57 min; Vd [18]: 1.37 L/kg

IC50 [1],SMILES,IC50 (TMD8 [2]),other results
2.5 nM,C=CC(=O)N1CC=C(c2c[nH]c3ncnc(-c4ccc(CNC(=O)c5ccc(C(C)(C)C)cc5)cc4)c23)CC1,–,–
92.9 nM,C=CC(=O)NCCNc1ncnc2[nH]cc(C(=O)N3CC(Oc4ccccc4)C3)c12,–,–
0.5 nM,C=CC(=O)N1CCC(CNc2ncnc3[nH]cc(C(=O)N4CC(Oc5cccc(C)c5)C4)c23)CC1,15.6 nM,–
1.1 nM,CC#CC(=O)N1CC=C(c2c[nH]c3ncnc(-c4ccc(CNC(=O)c5ccc(C(C)(C)C)cc5)c(C)c4)c23)CC1,1.7 nM,–
974 nM,CC#CC(=O)N1CCC(Nc2ncnc3[nH]cc(C(=O)N4CC(Oc5ccccc5)C4)c23)CC1,–,–
–,C=CC(=O)N1CCC([C@@H]2CCNc3c(C(N)=O)c(-c4ccc(Oc5ccccc5)cc4)nn32)CC1,–,Selectivity ratio (Homo sapiens): 8.7
94.9 nM,C=CC(=O)N1CC[C@H](n2nc(C#Cc3cc(OC)cc(OC)c3)c3c(N)ncnc32)C1 [FUTIBATINIB],–,–
1.4 nM,C=CC(=O)N1CCC(CNc2ncnc3[nH]cc(C(=O)N4CC(Oc5ccc6ccccc6c5)C4)c23)CC1,28 nM,–
1.34 nM,C=CC(=O)N1CC=C(c2c[nH]c3ncnc(-c4ccc(CNC(=O)c5ccc(C(C)(C)C)cc5)c(C)c4)c23)CC1,–,–
0.5 nM,C=CC(=O)N1CCC(CNc2ncnc3[nH]cc(C(=O)N4CC(Oc5cccc(Cl)c5)C4)c23)CC1,12.9 nM,AUC(0-t) [6]: 32.8 ng·h/mL; half-life [7]: 11.4 min; AUC(0-inf) [8]: 541 ng·h/mL; Cmax [9]: 1250 ng/mL; AUC(0-inf) [10]: 32.9 ng·h/mL; clearance [11]: 92.8 mL/min/kg; Tmax [12]: 6.6 min; AUC(0-t) [13]: 359 ng·h/mL; bioavailability [14]: 1.82%; Cmax [15]: 48.6 ng/mL; Tmax [16]: 3 min; half-life [17]: 23.4 min; Vd [18]: 1.52 L/kg
0.6 nM,C=CC(=O)N1CCC(CNc2ncnc3[nH]cc(C(=O)N4CC(Oc5ccccc5)C4)c23)CC1,24.4 nM,–
11.1 nM,CC#CC(=O)N1CC=C(c2c[nH]c3ncnc(-c4ccc(CNC(=O)c5ccc(C(C)(C)C)cc5)cc4)c23)CC1,–,–
2.2 nM,C=CC(=O)N1CCC(O)(CNc2ncnc3[nH]cc(C(=O)N4CC(Oc5ccccc5)C4)c23)CC1,320 nM,–
8.4 nM,C=CC(=O)N1CCC(CNc2ncnc3[nH]cc(C(=O)NCCOc4ccccc4)c23)CC1,–,–
0.8 nM,CC#CC(=O)N1CC=C(c2c[nH]c3ncnc(-c4ccc(CNC(=O)c5ccc(C(C)(C)C)cc5)c(F)c4)c23)CC1,1.7 nM,–
1.9 nM,C=CC(=O)N1CCC(c2c[nH]c3ncnc(-c4ccc(CNC(=O)c5ccc(C(C)(C)C)cc5)c(F)c4)c23)CC1,–,–
0.8 nM,C=CC(=O)N1CCC(CNc2ncnc3[nH]cc(C(=O)N4CC(Oc5cccc6ccccc56)C4)c23)CC1,22.6 nM,–
2.2 nM,CC#CC(=O)N1CCC(c2c[nH]c3ncnc(-c4ccc(CNC(=O)c5ccc(C(C)(C)C)cc5)cc4)c23)CC1,–,–
1.2 nM,CC#CC(=O)N1CCC(c2c[nH]c3ncnc(-c4ccc(CNC(=O)c5ccc(C(C)(C)C)cc5)c(F)c4)c23)CC1,1.8 nM,AUC(0-t) [6]: 8.94 ng·h/mL; half-life [7]: 167 min; AUC(0-inf) [8]: 231 ng·h/mL; Cmax [9]: 2160 ng/mL; AUC(0-inf) [10]: 9.57 ng·h/mL; clearance [11]: 144 mL/min/kg; Tmax [12]: 4.8 min; AUC(0-t) [13]: 229 ng·h/mL; bioavailability [14]: 0.78%; Cmax [15]: 49.9 ng/mL; Tmax [16]: 1.8 min; half-life [17]: 83.4 min; Vd [18]: 34.8 L/kg
1.3 nM,C=CC(=O)N1CC=C(c2c[nH]c3ncnc(-c4ccc(CNC(=O)c5ccc(C(C)(C)C)cc5)c(F)c4)c23)CC1,3.4 nM,–
0.8 nM,C=CC(=O)N1CCC(CNc2ncnc3[nH]cc(C(=O)N4CC(Oc5ccccn5)C4)c23)CC1,38.1 nM,–
1.9 nM,C=CC(=O)N1CCCC(Nc2ncnc3[nH]cc(C(=O)N4CC(Oc5ccccc5)C4)c23)C1 (configuration not stated),454 nM,–
–,C=CC(=O)N1CCC(CNc2ncnc(N)c2-c2ccc(Oc3ccccc3)cc2)CC1 [EVOBRUTINIB],56.2 nM,–
26.2 nM,C=CC(=O)N1CCC(CNc2ncnc3[nH]cc(C(=O)N4CCC(Oc5ccccc5)CC4)c23)CC1,–,–

# — ChEMBL document CHEMBL5104164, “Design, synthesis, and biological evaluation of pyrrolopyrimidine derivatives as novel Bruton's tyrosine kinase (BTK) inhibitors” (Eur J Med Chem, 2022)
